Source: patent US9943082B2, “Ternary fungicidal mixtures” (BAYER CROPSCIENCE AG, priority 2012, dated 2018)

Test system: Puccinia triticina
Assay: Puccinia triticina test (wheat)/preventive
Format: in vivo
Conditions: preventive spray, evaluated 8 days after inoculation
Experimental: To produce a suitable preparation of active compound, 1 part by weight of active compound or active compound combination is mixed with the stated amounts of solvent and emulsifier, and the concentrate is diluted with water to the desired concentration.
To test for preventive activity, young plants are sprayed with the preparation of active compound or active compound combination at the stated rate of application.
After the spray coating has been dried, the plants are sprayed with a spore suspension of Puccinia triticina. The plants remain for 48 hours in an incubation cabinet at approximately 20° C. and a relative atmospheric humidity of approximately 100%.
The plants are placed in the greenhouse at a temperature of approximately 20° C. and a relative atmospheric humidity of approximately 80%.
The test is evaluated 8 days after the inoculation. 0% means an efficacy which corresponds to that of the untreated control, while an efficacy of 100% means that no disease is observed.

Row | Structure (SMILES) | Efficacy in % found (10 ppm a.i.) | further results
1 | COC(=O)N(OC)c1ccccc1COc1ccn(-c2ccc(Cl)cc2)n1 [3.14 pyraclostrobin, pyraclostrobin] | 22% | 
2 | OC(Cc1ccccc1Cl)(Cn1nc[nH]c1=S)C1(Cl)CC1 (centres unmarked) [2.23 prothioconazole, prothioconazole] |  | Efficacy in % found (20 ppm a.i.): 0%
3 | CC1CC(C)(C)c2cccc(NC(=O)c3cn(C)nc3C(F)F)c21 (centres unmarked) [(I-1), 3-(difluoromethyl)-1-methyl-N-(1,1,3-trimethyl-2,3-dihydro-1H-inden-4-yl)-1H-pyrazole-4-carboxamide] |  | Efficacy in % found (30 ppm a.i.): 78%
4 | CO/C=C(/C(=O)OC)c1ccccc1Oc1cc(Oc2ccccc2C#N)ncn1 [3.2 azoxystrobin, azoxystrobin] | 78% | 
5 | CON=C(C(=O)OC)c1ccccc1CON=C(C)c1cccc(C(F)(F)F)c1 [3.15 trifloxystrobin, trifloxystrobin] | 33% | 
